Results taken from ChEMBL document CHEMBL5729236, “CIS-morpholinone and other compounds as MDM2 inhibitors for the treatment of cancer” (2022).

Molecular target: E3 ubiquitin-protein ligase Mdm2 (Homo sapiens, UniProt Q00987)
Assay: HTRF2 Assay: As the potencies of the HDM2 inhibitors increased, an improved HTRF assay (HTRF2 assay) was developed. All assay conditions remained the same as described above, with the exception of the following changes in reagent concentrations: 0.2 nM GST-hMDM2 (1-188), 0.5 nM biotinylated-p53 (1-83), 0.18 nM SA-XLent, and 100 mM KF.

Chain of E3 ubiquitin-protein ligase Mdm2 (Q00987 whole entry): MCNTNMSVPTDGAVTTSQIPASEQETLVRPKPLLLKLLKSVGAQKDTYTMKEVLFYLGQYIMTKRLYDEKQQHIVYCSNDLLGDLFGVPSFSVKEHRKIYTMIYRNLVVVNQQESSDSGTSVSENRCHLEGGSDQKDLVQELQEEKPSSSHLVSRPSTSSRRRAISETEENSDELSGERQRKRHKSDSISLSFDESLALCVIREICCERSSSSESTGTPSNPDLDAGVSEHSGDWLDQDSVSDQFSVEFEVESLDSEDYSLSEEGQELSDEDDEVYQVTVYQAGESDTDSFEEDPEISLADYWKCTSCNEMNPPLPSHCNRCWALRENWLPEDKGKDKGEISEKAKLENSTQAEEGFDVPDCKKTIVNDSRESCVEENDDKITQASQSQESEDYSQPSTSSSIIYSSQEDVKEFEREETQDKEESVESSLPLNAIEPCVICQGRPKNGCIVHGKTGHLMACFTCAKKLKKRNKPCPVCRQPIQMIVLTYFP

SMILES | IC50 [nM]
CCC[C@H](C(=O)O)N1C(=O)CO[C@@H](c2ccc(Cl)cc2)[C@H]1c1cc2ccccc2[nH]1 (mixture of isomers) | 1290
CCC[C@H](C(=O)N1CC(C(=O)O)C1)N1C(=O)[C@H](Cc2ccc(F)cc2)O[C@@H](c2ccc(Cl)cc2)[C@H]1c1ccc(Cl)cc1 (mixture of isomers) | 524
O=C1[C@H](CCCO)O[C@@H](c2cccc(Cl)c2)[C@@H](c2ccc(Cl)cc2)N1CC1CC1 (mixture of isomers) | 7230
